One experiment concerns HEK-293T. The experiment in a line: Cytotoxicity against HEK293T cells assessed as reduction in cell viability incubated for 48 hrs by CCK8 assay. The following applies: Homo sapiens.
A further experiment concerns RS4-11. The experiment in a line: cells. The conditions noted are these: Homo sapiens, RS4-11, 48 h.
The test system of the next experiment is HL-60. Kind of experiment: cells. The following applies: Homo sapiens, HL-60, 48 h.
The subject of the next experiment is HeLa. Kind of experiment: cells. The conditions noted are these: Homo sapiens, 48 h.
Experiment [1] has as its target Induced myeloid leukemia cell differentiation protein Mcl-1 (Homo sapiens, UniProt Q07820). Kind of experiment: Binding affinity to full length human MCL1 expressed in Escherichia coli BL21 (DE3) at 100 uM preincubated for 30 mins followed by 5-FAM-QEDIIIINIARHLAQVGDSMD-RSIPPG tracer addition and measured after 20 mins by fluorescence polarization assay relative to control. The following applies: time 50.0 min. A general note: Fluorescence polarisation rises when a labelled molecule tumbles more slowly, as on binding a larger partner.

In experiment [2] the target is Apoptosis regulator Bcl-2 (Homo sapiens, UniProt P10415). Kind of experiment: Binding affinity to full length human Bcl-2 expressed in Escherichia coli BL21 (DE3) at 100 uM preincubated for 30 mins followed by 5-FAM-QEDIIIINIARHLAQVGDSMD-RSIPPG tracer addition and measured after 20 mins by fluorescence polarization assay relative to control. The conditions noted are these: time 50.0 min.
Sequence of Apoptosis regulator Bcl-2 (P10415 whole entry): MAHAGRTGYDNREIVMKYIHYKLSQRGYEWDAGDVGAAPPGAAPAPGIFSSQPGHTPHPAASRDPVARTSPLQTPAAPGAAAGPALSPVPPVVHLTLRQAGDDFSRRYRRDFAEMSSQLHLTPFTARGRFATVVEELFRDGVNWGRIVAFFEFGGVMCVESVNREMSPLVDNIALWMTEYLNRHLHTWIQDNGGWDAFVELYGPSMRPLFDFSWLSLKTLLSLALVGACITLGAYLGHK

Another experiment concerns the target Bcl-2-like protein 1 (Homo sapiens, UniProt Q07817). Kind of experiment: Binding affinity to full length human Bcl-xl expressed in Escherichia coli BL21 (DE3) at 100 uM preincubated for 30 mins followed by 5-FAM-QEDIIIINIARHLAQVGDSMD-RSIPPG tracer addition and measured after 20 mins by fluorescence polarization assay relative to control. The conditions noted are these: time 50.0 min.

pIC50: −log10 of the molar value.

Sequence of Induced myeloid leukemia cell differentiation protein Mcl-1 (Q07820 whole entry): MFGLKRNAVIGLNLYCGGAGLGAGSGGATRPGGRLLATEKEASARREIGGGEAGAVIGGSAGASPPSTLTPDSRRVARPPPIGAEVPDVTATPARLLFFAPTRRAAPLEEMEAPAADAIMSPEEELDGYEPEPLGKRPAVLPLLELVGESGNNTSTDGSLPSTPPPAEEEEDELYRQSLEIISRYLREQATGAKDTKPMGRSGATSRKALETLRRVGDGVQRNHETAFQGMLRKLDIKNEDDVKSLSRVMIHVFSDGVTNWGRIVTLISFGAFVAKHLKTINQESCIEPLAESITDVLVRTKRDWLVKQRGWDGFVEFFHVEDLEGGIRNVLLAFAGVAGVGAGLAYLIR
Sequence of Bcl-2-like protein 1 (Q07817 whole entry): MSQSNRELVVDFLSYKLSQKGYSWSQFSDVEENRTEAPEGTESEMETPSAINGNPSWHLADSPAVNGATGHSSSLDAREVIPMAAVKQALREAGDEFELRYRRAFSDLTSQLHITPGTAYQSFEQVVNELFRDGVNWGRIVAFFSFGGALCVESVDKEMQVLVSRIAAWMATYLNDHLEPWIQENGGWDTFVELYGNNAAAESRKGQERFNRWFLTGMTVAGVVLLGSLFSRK
Description for HL-60: Cytotoxicity against human HL-60 cells assessed as inhibition of cell growth incubated for 48 hrs by CCK8 assay
Description for HeLa: Cytotoxicity against human HeLa cells assessed as inhibition of cell growth incubated for 48 hrs by CCK8 assay
Description for RS4-11: Cytotoxicity against human RS4-11 cells assessed as inhibition of cell growth incubated for 48 hrs by CCK8 assay

Consider `O=C(Nc1ccc([N+](=O)[O-])cc1)N1CCN(S(=O)(=O)c2sccc2-c2ccccc2Oc2ccc(O)c(O)c2)CC1`, for which the pIC50 in the experiment with HEK-293T was less than 4.70; in the experiment on RS4-11, 4.84; with HL-60, 5.31; in the experiment with HeLa, less than 4.70. Also, the figures for the inhibition (in experiment [1]; in experiment [2]; at Bcl-2-like protein 1) were 63%, 33% and 29%, respectively.

For `O=C(Nc1ccc(F)cc1)N1CCN(S(=O)(=O)c2sccc2-c2ccccc2Oc2ccc(O)c(O)c2)CC1`, the negative logarithm of the IC50 (pIC50) with HEK-293T was 4.81; in the experiment with RS4-11, 5.17; in the experiment with HL-60, 5.09; in the experiment on HeLa, 4.83. Moreover, the inhibition in experiment [1] turned out to be 95%; in experiment [2] it was 33%; on Bcl-2-like protein 1, 32%.

For `COc1ccc(Oc2ccccc2-c2ccsc2S(=O)(=O)N2CCN(C(=O)Nc3cccc([N+](=O)[O-])c3)CC2)cc1OC`, the pIC50 with HEK-293T was less than 4.70; with RS4-11 it was less than 4.30; in the experiment with HL-60, less than 4.30; in the experiment with HeLa it was less than 4.30. In addition, the figures for the inhibition (in experiment [1]; in experiment [2]; on Bcl-2-like protein 1) were 31%, 18% and 19%, respectively.

In the case of `COc1ccc(Oc2ccccc2-c2ccsc2S(=O)(=O)N2CCN(C(=O)Nc3ccc(F)cc3)CC2)cc1OC`, the pIC50 in the experiment with HEK-293T is less than 4.30; with RS4-11, 4.83; in the experiment on HL-60, less than 4.70; in the experiment with HeLa it was less than 4.70. The figures for the inhibition (in experiment [1]; in experiment [2]; at Bcl-2-like protein 1) were 28%, 15% and 33%, respectively.

As for `COc1ccc(Oc2ccccc2-c2ccsc2S(=O)(=O)N2CCN(C(=S)Nc3ccc([N+](=O)[O-])cc3)CC2)cc1OC`, the pIC50 was less than 4.70 with HEK-293T, less than 4.30 in the experiment with RS4-11, less than 4.30 in the experiment with HL-60 and less than 4.30 with HeLa. The values for the inhibition (in experiment [1]; in experiment [2]; at Bcl-2-like protein 1) were 33%, 16% and 18%, respectively.

Take `COc1ccc(Oc2ccc([N+](=O)[O-])cc2-c2ccsc2S(=O)(=O)N2CCN(C(=S)Nc3ccc([N+](=O)[O-])cc3)CC2)cc1OC`: the pIC50 in the experiment on HEK-293T, with RS4-11, in the experiment with HL-60 and with HeLa was less than 4.30 each time. Moreover, the inhibition amounted to 26% in experiment [1], 16% in experiment [2] and 27% on Bcl-2-like protein 1.

Regarding `COc1ccc(Oc2ccc([N+](=O)[O-])cc2-c2ccsc2S(=O)(=O)N2CCN(C(=O)Nc3ccc([N+](=O)[O-])cc3)CC2)cc1OC`, the pIC50 is less than 4.70 in the experiment on HEK-293T, less than 4.30 in the experiment on RS4-11, less than 4.30 in the experiment with HL-60 and less than 4.30 with HeLa. Also, the inhibition was found to be 37% in experiment [1], 19% in experiment [2] and 44% on Bcl-2-like protein 1.

As to `COc1ccc(Oc2ccccc2-c2ccsc2S(=O)(=O)N2CCN(C(=O)Nc3cc(C(F)(F)F)cc(C(F)(F)F)c3)CC2)cc1OC`, the negative-log IC50 (pIC50) in the experiment on HEK-293T was less than 4.70; in the experiment on RS4-11, less than 4.30; with HL-60 it was less than 4.70; in the experiment with HeLa, less than 4.30. Besides, the results for the inhibition (in experiment [1]; in experiment [2]; at Bcl-2-like protein 1) were 44%, 23% and 24%, respectively.

Consider `O=S(=O)(c1sccc1-c1ccccc1Oc1ccc(O)c(O)c1)N1CCN(C(=S)Nc2ccc(Cl)cc2)CC1`, for which the pIC50 with HEK-293T is less than 4.30; in the experiment on RS4-11 it was 5.12; in the experiment with HL-60, 5.26; with HeLa it was less than 4.30. Further, the inhibition in experiment [1] amounted to 20%; in experiment [2], 2%; at Bcl-2-like protein 1 it was 3%.

Regarding `O=C(Nc1cccc([N+](=O)[O-])c1)N1CCN(S(=O)(=O)c2sccc2-c2ccccc2Oc2ccc(O)c(O)c2)CC1`, the pIC50 was less than 4.70 in the experiment with HEK-293T, 5.01 in the experiment on RS4-11, 5.35 with HL-60 and less than 4.70 with HeLa. For the same molecule, the inhibition stood at 74% in experiment [1], 30% in experiment [2] and 34% at Bcl-2-like protein 1.

By pIC50 is commonly meant the IC50 on a negative log10 scale, so that one unit is a factor of ten. As usually defined, the inhibition is the percentage by which the read-out fell short of the control. Read a low inhibition as a response near the control.

The values are drawn from ChEMBL document CHEMBL5034015, “Structure-Based Optimization of 3-Phenyl-N-(2-(3-phenylureido)ethyl)thiophene-2-sulfonamide Derivatives as Selective Mcl-1 Inhibitors” (J Med Chem, 2021).
